Measured values from US4868156A, “Pharmaceutical preparation containing a dipeptide with cell growth regulating effect” (Bio-Tech A/S, priority 1986, dated 1989).
Non-standard residues stand in square brackets, D forms with d. No end group written: not given here. pGlu = O=C1CC[C@@H](C(=O)O)N1

Tested on: mouse epidermal mitotic rate
Assay: change in mouse epidermal mitotic rate after intraperitoneal injection (Colcemid method)
Format: in vivo
Conditions: 10^-13 moles of peptide injected per mouse, first three hours after injection, versus control animals from the same cage
Protocol: In the following Table 1 the in vivo result (change in mouse epidermal mitotic rate) has been described as an example for one of the dipeptides. The epidermal mitotic rate was measured for the first three hours after intraperitoneal injection of the dipeptide. Mitotic rate was determined by means of "Colcemid". A reduced rate was determined as a percentage in comparison with control animals from the same cage.

[pGlu]-Gly
Decrease in mitotic rate: 40%
